Like-named read-outs stand apart in the source and are kept apart here.
Assays:
host tissue = experiment: Toxicity toward host tissue
Seratia = experiment: Inhibition of microorganism growth in Miller-Hinton broth (Minimal Inhibitory Concentration); assay type: cell-based, Serratia M.; conditions: Table 1, evaluated at 18 hours
Protocol: (§1) For each of the microorganisms listed below a culture was grown in Miller-Hinton broth (24 hour culture), and then diluted at a 1:100 ratio. This diluted culture was then grown for an additional two hours, after which the silver diphenyl hydantoin was added. […]

Staphloccoccus aereus = experiment: as above; assay type: cell-based; conditions: Table 1, evaluated at 18 hours
Protocol: as §1

Pseudomonas aeruginosa = experiment: as above; assay type: cell-based; conditions: Table 1, evaluated at 18 hours
Protocol: as §1

Klebsiella = experiment: as above; assay type: cell-based; conditions: Table 1, evaluated at 18 hours
Protocol: as §1

Candida Albicans = experiment: as above; assay type: cell-based; conditions: Table 1, evaluated at 18 hours
Protocol: as §1

[1] = test system: Enterococcus (Group D Strep); experiment: as above; assay type: cell-based; conditions: Table 1; 20 micrograms/ml; evaluated at 18 hours
Protocol: as §1

[2] = test system: pure cultures of organisms; experiment: Antibacterial action in pure cultures on blood agar plates; assay type: cell-based
Plasmopara viticola = experiment: Control of grape downy mildew on plants; assay type: in vivo; conditions: for Percent Disease Control, Preventive: inoculated 24 hours after application; for Percent Disease Control, Curative: inoculated 24 hours before application
Cercospora arachidicola = experiment: Control of peanut leafspot on plants; assay type: in vivo; conditions: for Percent Disease Control, Preventive: inoculated 24 hours after application; for Percent Disease Control, Curative: inoculated 24 hours before application
Venturia inaequalis = experiment: Control of apple scab on plants; assay type: in vivo; conditions: inoculated 24 hours after application
Phytophthora infestans = assay type: in vivo

Silver Ammonium Diphenyl Hydantoin [Silver ammonium phenytoin]
toxicity toward host tissue (host tissue): low toxicity toward host tissue
inhibition (Minimal Inhibitory Concentration table) (Seratia; 10 micrograms/ml): +
inhibition (Minimal Inhibitory Concentration table) (Seratia; 20 micrograms/ml): +
inhibition (Minimal Inhibitory Concentration table) (Seratia; 40 micrograms/ml): +
inhibition (Minimal Inhibitory Concentration table) (Staphloccoccus aereus; 20 micrograms/ml): +
inhibition (Minimal Inhibitory Concentration table) (Staphloccoccus aereus; 40 micrograms/ml): +
inhibition (Minimal Inhibitory Concentration table) (Pseudomonas aeruginosa; 20 micrograms/ml): +
inhibition (Minimal Inhibitory Concentration table) (Pseudomonas aeruginosa; 40 micrograms/ml): +
inhibition (Minimal Inhibitory Concentration table) (Klebsiella; 1 microgram/ml): +
inhibition (Minimal Inhibitory Concentration table) (Klebsiella; 10 micrograms/ml): +
inhibition (Minimal Inhibitory Concentration table) (Klebsiella; 20 micrograms/ml): +
inhibition (Minimal Inhibitory Concentration table) (Candida Albicans; 20 micrograms/ml): +
inhibition (Minimal Inhibitory Concentration table) (Candida Albicans; 40 micrograms/ml): +
inhibition (Minimal Inhibitory Concentration table) [1]: +
Antibacterial action [2]: Antibacterial action, was also demonstrated
Percent Disease Control, Preventive (Plasmopara viticola; 5 ppm): 24%
Percent Disease Control, Curative (Plasmopara viticola; 5 ppm): 0%
Percent Disease Control, Preventive (Plasmopara viticola; 20 ppm): 49%
Percent Disease Control, Curative (Plasmopara viticola; 20 ppm): 0%
Percent Disease Control, Preventive (Plasmopara viticola; 100 ppm): 87%
Percent Disease Control, Curative (Plasmopara viticola; 100 ppm): 0%
Percent Disease Control, Preventive (Cercospora arachidicola; 5 ppm): 16%
Percent Disease Control, Curative (Cercospora arachidicola; 5 ppm): 0%
Percent Disease Control, Curative (Cercospora arachidicola; 20 ppm): 0%
Percent Disease Control, Preventive (Cercospora arachidicola; 100 ppm): 78%
Percent Disease Control, Curative (Cercospora arachidicola; 100 ppm): 60%
Percent Disease Control, Preventive (Venturia inaequalis; 5 ppm): 17%
Percent Disease Control, Preventive (Venturia inaequalis; 20 ppm): 95%
Percent Disease Control, Preventive (Venturia inaequalis; 100 ppm): 98%
Percent Disease Control (Phytophthora infestans; 5 ppm): 17%
Percent Disease Control (Phytophthora infestans; 20 ppm): 95%
Percent Disease Control (Phytophthora infestans; 100 ppm): 98%
